Experimental data from patent US4521339A, “Ansatrienols” (Nisshin Flour Milling Co., Ltd., priority 1981, dated 1985).
In brackets after ≈: the same amount, converted by molar mass. Entries after “also recorded” stand apart in the source; their conditions may differ.

Legend:
[1] = test system: Aspergillus japonicus (IAM 2016); assay: Antimicrobial activity (MIC, dilution method); format: cell-based; conditions: IAM2016, 30° C., 72 hours, read-out: MIC (minimum inhibitory concentration)
Experimental: (§1) The MIC (minimum inhibitory concentration) value of the T-23-I substance was determined by cultivation of a microorganism in a medium containing 1.0% glucose and 0.2% malt extract at 30° C. for 72 hours by a dilution method.
(§2) The MIC (minimum inhibitory concentration) value of the T-23-II substance was determined by cultivation of a microorganism in a medium containing 1.0% glucose and 0.2% malt extract at 30° C. for 72 hours by a dilution method.

[2] = test system: Candida utilis (IFO 0396); assay: Antimicrobial activity (MIC, dilution method); format: cell-based; conditions: Williopsis jadinii, IFO0396, 30° C., 72 hours, read-out: MIC (minimum inhibitory concentration)
Experimental: as §1, §2

[3] = test system: Saccharomyces rouxii (IFO 0505); assay: Antimicrobial activity (MIC, dilution method); format: cell-based; conditions: Zygosaccharomyces rouxii, IFO0505, 30° C., 72 hours, read-out: MIC (minimum inhibitory concentration)
Experimental: as §1, §2

[4] = test system: Penicillium chrysogenum (IAM 7106); assay: Antimicrobial activity (MIC, dilution method); format: cell-based; conditions: IAM7106, 30° C., 72 hours, read-out: MIC (minimum inhibitory concentration)
Experimental: as §1, §2

[5] = test system: Mucor pusillus (IAM 6122); assay: Antimicrobial activity (MIC, dilution method); format: cell-based; conditions: Rhizomucor pusillus, IAM6122, 30° C., 72 hours, read-out: MIC (minimum inhibitory concentration)
Experimental: as §1, §2

[6] = test system: Saccharomyces cerevisiae (IFO 0304); assay: Antimicrobial activity (MIC, dilution method); format: cell-based; conditions: IFO0304, 30° C., 72 hours, read-out: MIC (minimum inhibitory concentration)
Experimental: as §1, §2

[7] = test system: several types of tumor cells; assay: Growth inhibition of several types of tumor cells; format: cell-based; conditions: statement in words
Acute toxicity = conditions: mouse, in vivo, ip
L-5178Y lymphoma cells = assay: Anti-tumor activity (in vitro) against L-5178Y lymphoma cells; format: cell-based; conditions: statement in words
Experimental: The cell growth was observed by a dilution method using an Eagle-NEM medium (Nissui) supplemented with 10% horse serum and 100 mg/l asparagine and cultivated at 37° C. for 120 hours. The T-23-I substance in ethanol solution was added to an assay system.
The cell growth was observed by a dilution method using an Eagle-NEM medium (Nissui) supplemented with 10% horse serum and 100 mg/l asparagine and cultivated at 37° C. for 120 hours. The T-23-II substance in ethanol solution was added to an assay system.

Solubility in solvents = conditions: for Solubility in solvents: organic solvents; for Soluble in (continued line of the solubility entry): organic solvents in which the substance is soluble, continuation line
mouse leukemia P-388 = assay: Anti-tumor activity against mouse leukemia P-388 (life span of mice); format: in vivo; conditions: CDF1 mice
Experimental: (§3) To six CDF1 male mice (20±1 g) of one group, 10^6 ascites tumor P-388 cells were transplanted intraperitoneally. The test material was administered first 24 hours and then 120 hours after transplantation. The dose of the test material suspended in gum arabic was 0.2 ml for each time. Increased life span was expressed in terms of % of the life span of the control group (administered with a gum arabic suspension).
as §3, with “after transplantation of” for “and”, “six times every 24 hours.” for “120 hours after transplantation.”

mouse sarcoma 180 = assay: Anti-tumor activity against mouse sarcoma 180 (life span of mice); format: in vivo; conditions: ICR mice
Experimental: To six ICR male mice (25±1 g) of one group, 10^6 sarcoma 180 ascites tumor cells were transplanted intraperitoneally. The test material was administered first three hours after transplantation and then four times every 24 hours. The dose of the test material (T-23-II substance) suspended in gum arabic was 0.2 ml for each time. Increased life span was expressed in terms of % of the life span of the control group (administered with a gum arabic suspension).

Structure (SMILES) | MIC [1] | MIC [2] | MIC [3] | MIC [4] | MIC [5] | MIC [6] | inhibition of the growth of several types of tumor cells [7] | LD50 (Acute toxicity) | inhibition of the growth of L-5178Y lymphoma cells (L-5178Y lymphoma cells) | Solubility in solvents (Solubility in solvents) | Soluble in (continued line of the solubility entry) (Solubility in solvents) | Solubility in water (Solubility in solvents) | further results
COC1C=CC=CC=CCC(OC(=O)[C@@H](C)NC(=O)C2CCCCC2)C(C)C(O)C(C)=CCCC2=CC(=O)C=C(NC(=O)C1)C2=O (stereo partly shown) [T-23-I substance] | 12.5 mg/L (≈ 19.6 µM) | 4 mg/L (≈ 6.28 µM) | 4 mg/L (≈ 6.28 µM) | 8 mg/L (≈ 12.6 µM) | 12.5 mg/L (≈ 19.6 µM) | 4 mg/L (≈ 6.28 µM) | some significant effect to inhibit the growth of several types of tumor cells | 55.9 mg/kg | effective to inhibit the growth of L-5178Y lymphoma cells | soluble in higher alcohols, acetone, chloroform, benzene and ethylacetate; also recorded: Soluble in methanol, ethanol, acetone; also recorded: Sparingly soluble in benzene and ether; also recorded: Insoluble in water, petroleum ether and hexane | chloroform and ethyl acetate | Insoluble in water | Increased life span T/C (mouse leukemia P-388; 0.75 mg/kg/day × 2 times): 105.7%; Increased life span T/C (mouse leukemia P-388; 1.5 mg/kg/day × 2 times): 107.3%; Increased life span T/C (mouse leukemia P-388; 3 mg/kg/day × 2 times): 105.7%; Increased life span T/C (mouse leukemia P-388; 6 mg/kg/day × 2 times): 120.2%; Increased life span T/C (mouse leukemia P-388; 12 mg/kg/day × 2 times): 123.3%; Increased life span T/C (mouse leukemia P-388; 24 mg/kg/day × 2 times): 56.0%
COC1C=CC=CC=CCC(OC(=O)[C@@H](C)NC(=O)C2CCCCC2)C(C)C(O)C(C)=CCCc2cc(O)cc(c2O)NC(=O)C1 (stereo partly shown) [T-23-II substance] | 12.5 mg/L (≈ 19.6 µM) | 4 mg/L (≈ 6.26 µM) | 4 mg/L (≈ 6.26 µM) | 12.5 mg/L (≈ 19.6 µM) | 12.5 mg/L (≈ 19.6 µM) | 4 mg/L (≈ 6.26 µM) | some significant effect to inhibit the growth of several types of tumor cells | 85.5 mg/kg | effective to inhibit the growth of L-5178Y lymphoma cells | soluble in higher alcohols, acetone, chloroform, benzene and ethylacetate; also recorded: Soluble in chloroform, methanol, ethanol; also recorded: Sparingly soluble in benzene and ether; also recorded: Insoluble in water, petroleum ether and hexane | acetone and ethyl acetate | Insoluble in water | Increased life span T/C (mouse leukemia P-388; 1.25 mg/kg/day × 6 times): 130.0%; Increased life span T/C (mouse leukemia P-388; 2.5 mg/kg/day × 6 times): 109.9%; Increased life span T/C (mouse leukemia P-388; 5 mg/kg/day × 6 times): 127.1%; Increased life span T/C (mouse leukemia P-388; 10 mg/kg/day × 6 times): 120.2%; Increased life span T/C (mouse leukemia P-388; 20 mg/kg/day × 6 times): 135.7%; Increased life span T/C (mouse sarcoma 180; 0.7 mg/kg/day × 4 times): 109.6%; Increased life span T/C (mouse sarcoma 180; 2.2 mg/kg/day × 4 times): 95.6%; Increased life span T/C (mouse sarcoma 180; 6.6 mg/kg/day × 4 times): 115.0%; Increased life span T/C (mouse sarcoma 180; 20 mg/kg/day × 4 times): 138.7%
COC1C=CC=CC=CCC(O)C(C)C(O)C(C)=CCCC2=CC(=O)C=C(NC(=O)C1)C2=O (stereo not shown) [T-23-III substance] |  |  |  |  |  |  | some significant effect to inhibit the growth of several types of tumor cells | ~250 mg/kg |  | Soluble in chloroform, ethyl acetate, methanol; also recorded: Sparingly soluble in ethyl ether; also recorded: Insoluble in petroleum ether and water | toluene | Insoluble | 
COC1C=CC=CC=CCC(O)C(C)C(O)C(C)=CCCc2cc(O)cc(c2O)NC(=O)C1 (stereo not shown) [T-23-IV substance] |  |  |  |  |  |  | some significant effect to inhibit the growth of several types of tumor cells | ~280 mg/kg |  | Soluble in chloroform, ethyl acetate, methanol; also recorded: Sparingly soluble in benzene and toluene; also recorded: Insoluble in petroleum ether and water | ethanol, acetone and acetonitrile | Insoluble | 
